The term IC50 denotes the midpoint of a concentration-inhibition curve. Low readings indicate inhibition by little substance, high ones a need for much substance.

Consider ten compounds from US10329282B2, “Rho-associated protein kinase inhibitor, pharmaceutical composition comprising the same, as well as preparation method and use thereof” (Beijing Tide Pharmaceutical Co., Ltd., priority 2017, dated 2019).

The assay concerns the target ROCK2 (Homo sapiens (Human), UniProt O75116). Briefly: ROCK2 kinase IC50 assay (CISBIO HTRF KinEASE-STK S2 kit). The note with it: ROCK2 from Carna Biosciences, 2 h incubation at room temperature. In kind it is biochemical. The method, boiled down: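 ROCK2 reaction with STK-S2 substrate and ATP (5× working solutions 1.5 μM each), 2 h at room temperature; 9-point compound dilutions from 10000 nM. HTRF 665/615 emission ratio gave % inhibition versus kinase and no-kinase controls; IC50 by curve fit.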

Each structure is given as a SMILES string.

Chain of ROCK2 (O75116 1-553): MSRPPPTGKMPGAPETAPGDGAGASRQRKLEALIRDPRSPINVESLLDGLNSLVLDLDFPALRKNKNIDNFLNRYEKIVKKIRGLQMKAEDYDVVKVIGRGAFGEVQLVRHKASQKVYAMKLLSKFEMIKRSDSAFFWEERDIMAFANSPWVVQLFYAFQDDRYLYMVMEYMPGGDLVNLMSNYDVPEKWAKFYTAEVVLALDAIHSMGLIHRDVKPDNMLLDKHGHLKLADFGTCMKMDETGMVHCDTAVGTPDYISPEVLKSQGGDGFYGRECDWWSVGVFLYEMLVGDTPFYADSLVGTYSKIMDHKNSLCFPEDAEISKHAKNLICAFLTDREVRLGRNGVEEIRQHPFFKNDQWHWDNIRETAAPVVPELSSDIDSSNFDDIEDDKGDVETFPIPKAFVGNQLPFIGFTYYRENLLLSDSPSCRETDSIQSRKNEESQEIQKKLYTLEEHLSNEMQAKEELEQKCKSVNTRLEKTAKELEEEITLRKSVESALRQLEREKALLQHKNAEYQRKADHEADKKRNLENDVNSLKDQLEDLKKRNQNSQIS

`CN(CCC#N)C(=O)c1cc2ccc(-c3nccc(Nc4ccc(-c5cn[nH]c5)cc4)n3)cc2[nH]1` [TDI01442] displayed a 50% inhibitory concentration (IC50) of 0.305 µM.
In the case of `CCN(CC)C(=O)c1cc2ccc(-c3ncc(OC)c(Nc4ccc(-c5cn[nH]c5)cc4)n3)cc2[nH]1` [TDI01823, 6-(4-((4-(1H-pyrazol-4-yl)phenyl)amino)-5-methoxypyrimidin-2-yl)-N,N-diethyl-1H-indole-2-carboxamide], the IC50 was 0.336 µM.
Compound `N#Cc1cnccc1NC(=O)c1cc2ccc(-c3nccc(Nc4ccc(-c5cn[nH]c5)cc4)n3)cc2[nH]1` [TDI01829B] gave an IC50 of 0.082 µM.
Consider `O=C(Nc1ccncc1I)c1cc2ccc(-c3nccc(Nc4ccc(-c5cn[nH]c5)cc4)n3)cc2[nH]1` [TDI01829C], for which the IC50 was found to be 0.097 µM.
Take `O=C(NC1CCN(c2ccncc2Cl)CC1)c1cc2ccc(-c3nccc(Nc4ccc(-c5cn[nH]c5)cc4)n3)cc2[nH]1` [TDI01847B, 6-(4-((4-(1H-pyrazol-4-yl)phenyl)amino)pyrimidin-2-yl)-N-(1-(3-chloropyridin-4-yl)piperidin-4-yl)-1H-indole-2-carboxamide]: the midpoint of inhibition, the IC50, lay at 0.026 µM.
`C[C@@H](NC(=O)c1cc2ccc(-c3nccc(Nc4ccc(-c5cn[nH]c5)cc4)n3)cc2[nH]1)c1ccncc1` [TDI01849B, (R)-6-(4-((4-(1H-pyrazol-4-yl)phenyl)amino)pyrimidin-2-yl)-N-(1-(pyridin-4-yl)ethyl)-1H-indole-2-carboxamide] had a half-inhibitory concentration (IC50) of 0.21 µM.
With `O=C(c1cc2ccc(-c3nccc(Nc4ccc(-c5cn[nH]c5)cc4)n3)cc2[nH]1)N1CCO[C@@H](CO)C1` [TDI01852, (R)-(6-(4-((4-(1H-pyrazol-4-yl)phenyl)amino)pyrimidin-2-yl)-1H-indel-2-yl)(2-(hydroxymethyl)morpholino)methanone], the IC50 was found to be 0.482 µM.
With `O=C(c1cc2ccc(-c3nccc(Nc4ccc(-c5cn[nH]c5)cc4)n3)cc2[nH]1)N1CCOC[C@H]1CO` [TDI01853, (R)-(6-(4-((4-(1H-pyrazol-4-yl)phenyl)amino)pyrimidin-2-yl)-1H-indol-2-yl)(3-(hydroxymethyl)morpholino)methanone], it took 0.275 µM to reach half-maximal inhibition (IC50).
As for `C[C@H](CN)NC(=O)c1cc2ccc(-c3nccc(Nc4ccc(-c5cn[nH]c5)cc4)n3)cc2[nH]1` [TDI01855, (R)-6-(4-((4-(1H-pyrazol-4-yl)phenyl)amino)pyrimidin-2-yl)-N-(1-aminopropan-2-yl)-1H-indole-2-carboxamide], the concentration for half-maximal inhibition (IC50) is 0.147 µM.
In the case of `C[C@@H](CN)NC(=O)c1cc2ccc(-c3nccc(Nc4ccc(-c5cn[nH]c5)cc4)n3)cc2[nH]1` [TDI01856, (S)-6-(4-((4-(1H-pyrazol-4-yl)phenyl)amino)pyrimidin-2-yl)-N-(1-aminopropan-2-yl)-1H-indole-2-carboxamide], half-maximal inhibition (IC50) required 0.141 µM.
